Measured values from patent publication US7078065B2, “Composition containing asiasari radix extracts for protecting brain cells and improving memory” (priority 2001, dated 2006).

Tests used:
C6 glial cells = test: Cell viability (MTT) assay, AMPA-induced damage in C6 glial cells; type: cell-based
Experimental: (§1) MTT assay is a method to measure mitochondrial redox with calorimeter and it is primarily used to know mitochondrial redox potential or cell viability (Mosmann T., J Immunol. Methods, 1983). PC 12 cells and C6 glial cells were grown in DMEM media with 10% fetal calf serum in 5% humidified CO2 atmosphere at 37° C. PC12 cells were induced to differentiation into neuronal cells by the addition of nerve growth factor (100 ng/ml). Fresh NGF was added every 48 h and experiments were conducted after NGF treatment for 7 days.
(§2) The cells were plated in 96 well plates at a density of 1×10^5 cells/well. Cells were preincubated with AMPA (40 μM) and followed by the addition of AR fractions (10 μg/ml) for 24 hrs. MTT reagent (Sigma, USA) (5 mg/ml) was made in PBS (phosphate buffered saline) and filtered. The cells were then treated with MTT (final concentration, 0.5 mg/ml) and allowed to incubate for 3 hrs at 37° C. Cells containing active mitochondria form dark blue formazan by disintegrating tetrazolium ring. The culture media were removed and the cells were subjected to lysis in the presence of […] of DMSO and […] of Sorensen glycine buffer (0.1M glycine, 0.1M NaCl, pH 10.5). The absorbance was measured with spectrophotometer at 570 nm. The ratio of absorbance of experimental groups to control groups is expressed as % cell viability.

[1] = test system: AMPA-induced depolarization in rat cortical slices; test: Grease-gap recording assay: AMPA-induced depolarization in rat cortical wedges; settings: AMPA 40 uM for 2 min
Experimental: Cortical wedges from rats were prepared, placed in two-compartment brain bath and experiments were performed as described by Harrison and Simmonds (British J. Pharmacol. 84, 381–391, 1985). ‘Wedges’ of rat cerebral cortex were prepared from the brains of male Wistar rats (200 g). The animal is decapitated and the brain rapidly removed into chilled oxygenated (95% O2/5% CO2) artificial cerebrospinal fluid (ACSF) containing (mM): NaCl 122, NaHCO3 25, KCl 3.1, KH2PO4 0.4, CaCl2 1.3, MgSO4 1.4, D-glucose 10, (pH 7.4). […] coronal slices were taken and they were then placed in room temperature oxygenated ACSF and hemisected with a razor blade. A wedge of tissue was formed such that the dorsal cortical surface containing cerebral cortex and corpus callosum was approximately 1.5 mm wide and ventral surface was approximately 1 mm wide. The wedges were further incubated in ACSF for 2 hrs at room temperature.
Cortical wedges were placed in a two-compartment bath and a greased (high vacuum silicon grease) barrier placed such that a high-resistance seal was formed between the two compartments. Oxygenated ACSF was perfused through the two compartments separately at 2 ml/min for at least 1 hr. […] The DC potential between the two compartments was monitored via Ag/AgCl electrodes. The signal was amplified and analyzed with the aid of McLab software.

[2] = test system: differentiated PC12 cells; test: Cell viability (MTT) assay, AMPA-induced damage in differentiated PC12 cells; type: cell-based; settings: AMPA 40 uM
Experimental: as §1, §2

For `Cc1o[nH]c(=O)c1CC(N)C(=O)O` (stereo not drawn) [AMPA], the “reduction in cell viability as compared to control” value (C6 glial cells) was “approximately 35%”, the increase in depolarization [1] was “up to 0.79 mV” and the “reduction in cell viability as compared to control” value [2] was “approximately 50%”.
